Experimental data: patent publication US6818663B2, “Diaminothiazoles” (Hoffmann-La Roches, priority 2002, dated 2004)

Legend:
[1] = biological target: human cyclin D1-CDK4 (Homo sapiens, UniProt P11802); assay: FlashPlate kinase assay, cyclin D1-CDK4, Rb substrate; format: biochemical; conditions: recombinant cyclin D1-CDK4, Rb phosphorylation, 1 μM ATP
Summary of the method: (§1)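 Recombinant human cyclin–CDK complexes, co-expressed in insect cells, phosphorylated His-tagged Rb (aa 386-928) coated on FlashPlates at 10 μg/ml. Reaction used 1 μM ATP plus 4 nM ^33P-ATP and 20 mM MgCl2 for 30 min at room temperature. % inhibition came from scintillation counts against no-enzyme and no-compound wells, and IC50 was the concentration halving radiolabel incorporation.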

[2] = biological target: human cyclin B-CDK1 (Homo sapiens, UniProt P06493); assay: FlashPlate kinase assay, cyclin B-CDK1, Rb substrate; format: biochemical; conditions: recombinant cyclin B-CDK1, Rb phosphorylation, 1 μM ATP
Sequence of human cyclin B-CDK1 (P06493 whole entry): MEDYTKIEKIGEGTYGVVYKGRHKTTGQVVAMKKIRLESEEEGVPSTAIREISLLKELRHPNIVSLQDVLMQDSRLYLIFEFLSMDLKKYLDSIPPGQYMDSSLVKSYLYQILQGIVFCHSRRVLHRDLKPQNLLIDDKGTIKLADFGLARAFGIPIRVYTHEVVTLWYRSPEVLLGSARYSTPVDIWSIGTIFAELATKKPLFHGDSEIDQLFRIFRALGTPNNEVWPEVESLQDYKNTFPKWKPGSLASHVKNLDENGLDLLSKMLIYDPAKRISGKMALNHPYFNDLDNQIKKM
Sequence of human cyclin B-CDK1 (P14635 whole entry partner): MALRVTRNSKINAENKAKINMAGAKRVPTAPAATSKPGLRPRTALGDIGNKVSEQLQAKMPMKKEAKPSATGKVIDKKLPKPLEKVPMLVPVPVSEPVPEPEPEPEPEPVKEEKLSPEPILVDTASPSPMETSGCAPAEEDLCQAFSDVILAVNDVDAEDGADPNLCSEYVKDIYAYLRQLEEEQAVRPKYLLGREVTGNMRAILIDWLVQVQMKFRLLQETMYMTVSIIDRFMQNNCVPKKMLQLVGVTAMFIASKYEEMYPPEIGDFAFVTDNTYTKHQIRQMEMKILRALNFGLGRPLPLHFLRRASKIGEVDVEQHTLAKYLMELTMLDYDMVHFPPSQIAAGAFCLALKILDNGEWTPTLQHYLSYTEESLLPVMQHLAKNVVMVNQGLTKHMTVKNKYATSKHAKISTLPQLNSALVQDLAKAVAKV
Summary of the method: as §1

[3] = test system: HCT116, a colorectal carcinoma cell line; assay: Tetrazolium dye proliferation assay (MTT assay); format: cell-based; conditions: Homo sapiens, HCT-116, HCT116 cells, inhibition of cell proliferation
Description: Proliferation was evaluated by the tetrazolium dye assay according to the procedure of Denizot and Lang (Denizot, F. and Lang, R. J Immunol Methods 1986, 89, 271-277). The cell line used was HCT116, a colorectal carcinoma cell line obtained from the American Type Cell Culture Collection (ATCC; Rockville, Md.). The cells were grown in McCoy's 5A medium supplemented with 10% FCS and L-glutamine.
Cells were plated at the appropriate seeding density to give logarithmic growth over the course of the assay in a 96-well tissue culture plate. Plates were incubated overnight at 37° C. in a humidified incubator with 5% CO2. The next day, test compounds were serially diluted to four times the final concentration in the appropriate medium containing 1.2% DMSO. One-fourth final volume of each dilution was added in duplicate to the plates containing cells. The same volume of 1.2% DMSO in medium was added to a row of “control wells” such that the final concentration of DMSO in each well was 0.3%. Wells to which no cells were added served as the “blank.” Wells to which no inhibitor was added served as “no inhibitor control.” The plates were) returned to the incubator, and at set time points (determined by their growth curves) plates were analyzed as described below.
3-(4,5-dimethylthiazole-2-yl)-2,5-diphenyl-2H-tetrazolium bromide (thiazolyl blue; MTT; Sigma) was added to each well to yield a final concentration of 1 mg/ml. Plates were returned to the incubator for 2.5-3 hours at 37° C. The MTT-containing medium was removed and the resulting formazan metabolite was solubilized in 100% ethanol with shaking for 15 minutes at room temperature. Absorbance readings were taken in a microtiter plate reader (Dynatech and Molecular Devices plate readers were used interchangeably) at a wavelength of 570 nm with a 650 nm reference. Percent inhibition (% INH) is calculated by subtracting the absorbance of the blank well from all wells, then subtracting the ratio of the average absorbance of each test duplicate (SAVE) by the average of the controls (CAVE) from 1.00. The final number is then multiplied by 100 (% INH=(1.00−SAVE/CAVE)×100). The concentration at which 50% inhibition of cell proliferation is obtained (the IC50) is determined from the linear regression of a plot of the logarithm of the concentration versus percent inhibition.

[4] = biological target: human cyclin E-CDK2 (Homo sapiens, UniProt P24941); assay: FlashPlate kinase assay, cyclin E-CDK2, Rb substrate; format: biochemical; conditions: recombinant cyclin E-CDK2, Rb phosphorylation, 1 μM ATP
Summary of the method: as §1

Sequence of human cyclin D1-CDK4 (P11802 whole entry, the tested form may be a part): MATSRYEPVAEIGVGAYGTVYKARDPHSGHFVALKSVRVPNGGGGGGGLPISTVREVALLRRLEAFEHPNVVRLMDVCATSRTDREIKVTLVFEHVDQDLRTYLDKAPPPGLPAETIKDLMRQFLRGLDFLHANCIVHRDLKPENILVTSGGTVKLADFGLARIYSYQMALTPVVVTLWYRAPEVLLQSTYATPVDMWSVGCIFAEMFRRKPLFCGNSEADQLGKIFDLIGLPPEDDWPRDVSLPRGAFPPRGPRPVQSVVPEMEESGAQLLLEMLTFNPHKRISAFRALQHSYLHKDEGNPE
Sequence of human cyclin D1-CDK4 (P24385 whole entry partner, the tested form may be a part): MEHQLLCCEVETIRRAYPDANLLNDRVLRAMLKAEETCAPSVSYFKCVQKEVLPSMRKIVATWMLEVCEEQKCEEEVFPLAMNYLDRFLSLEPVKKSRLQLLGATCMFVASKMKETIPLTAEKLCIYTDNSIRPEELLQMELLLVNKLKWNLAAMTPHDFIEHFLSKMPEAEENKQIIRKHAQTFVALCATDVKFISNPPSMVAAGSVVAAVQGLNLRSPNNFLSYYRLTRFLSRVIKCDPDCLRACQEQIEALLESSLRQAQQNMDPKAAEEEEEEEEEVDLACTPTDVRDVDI

Row | IC50 [1] | IC50 [2] | IC50 [3] | IC50 [4] | SMILES
1 | 51 nM | 2070 nM | 1210 nM | 4540 nM | C[C@H](COc1ccc(Nc2nc(N)c(C(=O)c3cccc(C4CC4)c3)s2)cc1)N1CCCC1 [Example 68, (R)-[4-Amino-2-[4-(2-pyrrolidin-1-yl-propoxy)-phenylamino]-thiazol-5-yl]-(3-cyclopropyl-phenyl)-methanone]
2 | 40 nM | 1780 nM | 1050 nM | 2890 nM | CN(C)CCOc1ccc(Nc2nc(N)c(C(=O)c3cccc(C4CC4)c3)s2)cc1 [Example 69, [4-Amino-2-[4-(2-dimethylamino-ethoxy)-phenylamino]-thiazol-5-yl]-(3-cyclopropyl-phenyl)-methanone]
3 | 38 nM | 2960 nM | 1930 nM | 3140 nM | C[C@H](COc1ccc(Nc2nc(N)c(C(=O)c3cccc(C4CC4)c3)s2)cc1)N(C)C [Example 70, (R)-[4-Amino-2-[4-(2-dimethylamino-propoxy)-phenylamino]-thiazol-5-yl]-(3-cyclopropyl-phenyl)-methanone]
4 | 39 nM | 3860 nM | 2360 nM | 2110 nM | CN(C)C(C)(C)COc1ccc(Nc2nc(N)c(C(=O)c3cccc(C4CC4)c3)s2)cc1 [Example 71, [4-Amino-2-[4-(2-dimethylamino-2-methyl-propoxy)-phenylamino]-thiazol-5-yl]-(3-cyclopropyl-phenyl)-methanone]
5 | 37 nM | 1980 nM | 1380 nM | 1180 nM | Nc1nc(Nc2ccc(OCCN3CCCC3)cc2)sc1C(=O)c1cccc(C2CC2)c1 [Example 72, [4-Amino-2-[4-(2-pyrrolidin-1-yl-ethoxy)-phenylamino]-thiazol-5-yl]-(3-cyclopropyl-phenyl)-methanone]
6 | 41 nM | 806 nM | 1510 nM | 1080 nM | CCN1CCCC(Oc2ccc(Nc3nc(N)c(C(=O)c4cccc(C)c4)s3)cc2)C1 (stereo not shown) [Example 78, [4-Amino-2-[4-(1-ethyl-piperidin-3-yloxy)-phenylamino]-thiazol-5-yl]-m-tolyl-methanone]
7 | 23 nM | 1080 nM | 1470 nM | 1170 nM | CCc1cccc(C(=O)c2sc(Nc3ccc(OC4CCCN(CC)C4)cc3)nc2N)c1 (stereo not shown) [Example 79, [4-Amino-2-[4-(1-ethyl-piperidin-3-yloxy)-phenylamino]-thiazol-5-yl]-(3-ethyl-phenyl)-methanone]
8 | 19 nM | 1840 nM | 1720 nM | 2280 nM | CCN1CCCC(Oc2ccc(Nc3nc(N)c(C(=O)c4cccc(C5CC5)c4)s3)cc2)C1 (stereo not shown) [Example 80, [4-Amino-2-[4-(1-ethyl-piperidin-3-yloxy)-phenylamino]-thiazol-5-yl]-(3-cyclopropyl-phenyl)-methanone]
9 | 49 nM | 980 nM | 1560 nM | 499 nM | CCN1CCC(Oc2ccc(Nc3nc(N)c(C(=O)c4cccc(C)c4)s3)cc2)C1 (stereo not shown) [Example 83, [4-Amino-2-[4-(1-ethyl-pyrrolidin-3-yloxy)-phenylamino]-thiazol-5-yl]-m-tolyl-methanone]
10 | 46 nM | 655 nM | 1510 nM | 278 nM | CCc1cccc(C(=O)c2sc(Nc3ccc(OC4CCN(CC)C4)cc3)nc2N)c1 (stereo not shown) [Example 84, [4-Amino-2-[4-(1-ethyl-pyrrolidin-3-yloxy)-phenylamino]-thiazol-5-yl]-(3-ethyl-phenyl)-methanone]
11 | 51 nM | 1080 nM | 2010 nM | 887 nM | CCN1CCC(Oc2ccc(Nc3nc(N)c(C(=O)c4cccc(C5CC5)c4)s3)cc2)C1 (stereo not shown) [Example 85, [4-Amino-2-[4-(1-ethyl-pyrrolidin-3-yloxy)-phenylamino]-thiazol-5-yl]-(3-cyclopropyl-phenyl)-methanone]
12 | 39 nM | 241 nM | 280 nM | 234 nM | CCCc1cc(C(=O)c2sc(Nc3ccc(OC4CCCN(CC)C4)cc3)nc2N)ccc1O (stereo not shown) [Example 88, [4-Amino-2-[4-(1-ethyl-piperidin-3-yloxy)-phenylamino]-thiazol-5-yl]-(4-hydroxy-3-propyl-phenyl)-methanone; Compound With Acetic Acid]
13 | 19 nM | 261 nM | 327 nM | 175 nM | CCCc1cc(C(=O)c2sc(Nc3ccc(OC4CCN(CC)C4)cc3)nc2N)ccc1O (stereo not shown) [Example 89, [4-Amino-2-[4-(1-ethyl-pyrrolidin-3-yloxy)-phenylamino]-thiazol-5-yl]-(4-hydroxy-3-propyl-phenyl)-methanone; Compound With Acetic Acid]
14 | 51 nM | 538 nM | 1570 nM | 495 nM | CCc1cccc(C(=O)c2sc(Nc3ccc(OC4CCNC4)cc3)nc2N)c1 (stereo not shown) [Example 92, [4-Amino-2-[4-(pyrrolidin-3-yloxy)-phenylamino]-thiazol-5-yl)-(3-ethyl-phenyl)-methanone; Compound With Acetic Acid]
15 | 42 nM | 859 nM | 2020 nM | 1200 nM | Nc1nc(Nc2ccc(OC3CCNC3)cc2)sc1C(=O)c1cccc(C2CC2)c1 (stereo not shown) [Example 93, [4-Amino-2-[4-(pyrrolidin-3-yloxy)-phenylamino]-thiazol-5-yl]-(3-cyclopropyl-phenyl)-methanone; Compound With Acetic Acid]
16 | 39 nM | 668 nM | 3290 nM | 1440 nM | COc1ccc(C(=O)c2sc(Nc3ccc(OC4CCNC4)cc3)nc2N)cc1F (stereo not shown) [Example 96, [4-Amino-2-[4-(pyrrolidin-3-yloxy)-phenylamino]-thiazol-5-yl]-(3-fluoro-4-methoxy-phenyl)-methanone]
17 | 43 nM | 731 nM | 880 nM | 1230 nM | CCNCCOc1ccc(Nc2nc(N)c(C(=O)c3cccc(C)c3)s2)cc1 [Example 100, [4-Amino-2-(4-(2-ethylamino-ethoxy)-phenylamino]-thiazol-5-yl]-m-tolyl-methanone; Compound With Acetic Acid]
18 | 21 nM | 660 nM | 685 nM | 1110 nM | CCNCCOc1ccc(Nc2nc(N)c(C(=O)c3cccc(CC)c3)s2)cc1 [Example 101, [4-Amino-2-[4-(2-ethylamino-ethoxy)-phenylamino]-thiazol-5-yl]-(3-ethyl-phenyl)-methanone; Compound With Acetic Acid]
19 | 26 nM | 883 nM | 738 nM | 1690 nM | CCNCCOc1ccc(Nc2nc(N)c(C(=O)c3cccc(C4CC4)c3)s2)cc1 [Example 102, [4-Amino-2-[4-(2-ethylamino-ethoxy)-phenylamino]-thiazol-5-yl]-(3-cyclopropyl-phenyl)-methanone; Compound With Acetic Acid]
20 | 41 nM | 432 nM | 1430 nM | 1760 nM | CCNCCOc1ccc(Nc2nc(N)c(C(=O)c3ccc(C)c(F)c3)s2)cc1 [Example 103, [4-Amino-2-[4-(2-ethylamino-ethoxy)-phenylamino]-thiazol-5-yl]-(3-fluoro-4-methyl-phenyl)-methanone; Compound With Acetic Acid]
21 | 52 nM | 3510 nM | 2450 nM | 3310 nM | CCNCCOc1ccc(Nc2nc(N)c(C(=O)c3ccc(F)c(CC)c3)s2)cc1 [Example 104, [4-Amino-2-[4-(2-ethylamino-ethoxy)-phenylamino]-thiazol-5-yl]-(3-ethyl-4-fluoro-phenyl)-methanone; Compound With Acetic Acid]
22 | 18 nM | 112 nM | 390 nM | 176 nM | CCCc1cc(C(=O)c2sc(Nc3ccc(OCCNCC)cc3)nc2N)ccc1O [Example 105, [4-Amino-2-[4-(2-ethylamino-ethoxy)-phenylamino]-thiazol-5-yl]-(4-hydroxy-3-propyl-phenyl)-methanone; Compound With Acetic Acid]
